Patent US11117876B2, “Crystalline form of ozanimod hydrochloride, and processes for preparation thereof” (RECEPTOS, LLC, priority 2017, dated 2021)
“Also recorded” adds a separate entry of the source. Counter-ions that a name gives are not always drawn.

Experiments:
Format in all cases: physicochemical
[1] = Long-term and accelerated stability of Form CS2 (XRPD and HPLC purity after storage); conditions: 7 weeks, open dish, hydrochloride
Text: X-ray powder diffraction pattern in the present disclosure was acquired by a Panalytical Empyrean X-ray powder diffractometer. The parameters of the X-ray powder diffraction method of the present disclosure were as follows: • X-ray Reflection: Cu, Kα. • Kα1 (Å): 1.540598; Kα2 (ÅA): 1.544426 • Kα2/Kα1 intensity ratio: 0.50 • Voltage: 45 (kV) • Current: 40 (mA) • Scan range: from 3.0 to 40.0 degree
High Performance Liquid Chromatography (HPLC) data for purity test in example 4 of the present disclosure were collected from an Agilent 1260 with UV Variable Wavelength Detector (VWD). The HPLC method parameters are as follows: • Column: Waters XBridge C18 150×4.6 mm, 5 μm • Mobile Phase: A: 0.1% TFA in H2O • B: 0.1% TFA in Acetonitrile
• Flow rate: 1.0 mL/min • Injection Volume: 10 μL • Detection wavelength: 270 nm • Column Temperature: 40° C. • Diluent: MeOH/THF (v/v, 6/4)
Three solid samples of Form CS2 were stored under the conditions of 25° C./60% RH, 40° C./75% RH and 60° C./75% RH for 7 weeks in open dishes. XRPD of the samples was tested and the physical stability results are shown in FIG. 7 (from top to bottom: XRPD pattern of Form CS2 before and after being stored under the conditions of 25° C./60% RH, 40° C./75% RH and 60° C./75% RH for 7 weeks). Chemical purity of Form CS2 was tested after stored under the conditions of 25° C./60% RH and 40° C./75% RH for 7 weeks and the results are shown in Table 4.

[2] = Dynamic solubility of Form CS2 in SGF, FeSSIF, FaSSIF and water; conditions: for solubility at 1 h / solubility at 4 h / solubility at 24 h: thermodynamic from solid
Description: High Performance Liquid Chromatography (HPLC) data for solubility test in example 5 of the present disclosure were collected from an Agilent 1100 with Diode Array Detector (DAD). The HPLC method parameters are as follows: • Column: L005# Waters Xbridge C18, 150×4.6 mm, 5 μm • Mobile Phase: A: 0.1% TFA in H2O • B: 0.1% TFA in Acetonitrile
• Flow rate: 1.0 ml/min • Injection Volume: 5 μl • Detection wavelength: 270 nm • Column Temperature: 40° C. • Diluent: MeOH/THF (v/v, 6/4)
Simulated gastrointestinal fluids such as SGF (Simulated gastric fluids), FaSSIF (Fasted state simulated intestinal fluids) and FeSSIF (Fed state simulated intestinal fluids) are biorelevant media. Solubility in such media is closer to that in human environment, which can reflect the effects of gastrointestinal environment on drug release better.
20 mg of Form CS2 was suspended into 1.5 mL of SGF, 1.5 mL of […], 1.5 mL of […] and 1.5 mL of water to get saturated solutions. After equilibrated for 1 h, 4 h and 24 h, concentrations (mg/mL) of the saturated solutions were measured by HPLC.

[3] = Mechanical stability of Form CS2 (manual grinding, XRPD); conditions: ground manually for 5 minutes in a mortar
Description: Solid sample of Form CS2 was ground manually for 5 minutes in a mortar. The XRPD comparison pattern of Form CS2 before and after grinding is depicted in FIG. 8.

[4] = Hygroscopicity of Form CS2 by dynamic vapor sorption (DVS); conditions: for Weight gain under 80% RH: 25° C., hydrochloride
Description: Dynamic Vapor Sorption (DVS) is measured via a SMS (Surface Measurement Systems Ltd.) intrinsic DVS instrument. Its control software is DVS-Intrinsic control software, and its analysis software is DVS-Intrinsic Analysis software. Typical Parameters for DVS test are as follows: • Temperature: 25° C. • Gas and flow rate: N2, 200 mL/min • dm/dt: 0.002%/min • RH range: 0% RH to 95% RH
Dynamic vapor sorption (DVS) was applied to test hygroscopicity of Form CS2 with about 10 mg of sample. The DVS plot of Form CS2 is depicted in FIG. 9.

[5] = Particle size distribution of Form CS2 (laser particle size analyzer); conditions: wet mode, Isopar G
Description: The particle size distribution data in the present disclosure were acquired by an S3500 laser particle size analyzer of Microtrac. Microtrac S3500 is equipped with an SDC (Sample Delivery Controller). The test is carried out in wet mode, and the dispersion medium is Isopar G. The parameters are as follows:
10-30 mg of Form CS2 and 10 mL of Isopar G (containing 0.2% lecithin) were mixed thoroughly and then transferred into the SDC. The measurement was started when the sample amount indicator is in appropriate position. The average particle diameter calculated by volume, the diameter at which 10% mass is comprised of smaller particles, the diameter at which 50% mass is comprised of smaller particles and the diameter at which 90% mass is comprised of smaller particles were obtained in particle size distribution test.
Explanation of the abbreviations used in the present invention is as follows: • MV: Average particle diameter calculated by volume. • D10: the size in microns below which 10 percent of the particles reside on a volume basis. • D50: the size in microns below which 50 percent of the particles reside on a volume basis, also known as the median diameter. • D90: the size in microns below which 90 percent of the particles reside on a volume basis.

[6] = FaSSIF (fasted state simulated intestinal fluid), FaSSIF
[7] = FeSSIF (fed state simulated intestinal fluid), FeSSIF

Compound: CC(C)Oc1ccc(-c2nc(-c3cccc4c3CC[C@@H]4NCCO)no2)cc1C#N [Form CS2, ozanimod hydrochloride]
- Crystalline form change after storage (XRPD) ([1]; 25° C./60% RH): no form change; also recorded: doesn't change
- Crystalline form change after storage (XRPD) ([1]; 40° C./75% RH): no form change; also recorded: doesn't change
- Crystalline form change after storage (XRPD) ([1]; 60° C./75% RH): no form change; also recorded: doesn't change
- solubility at 1 h [2, 6]: 3000 µg/mL
- solubility at 4 h ([2]; FaSSIF (fasted state simulated intestinal fluid), FaSSIF, 4 h): 3000 µg/mL
- solubility at 24 h [2, 6]: 3100 µg/mL
- solubility at 1 h [2, 7]: 300 µg/mL
- solubility at 4 h ([2]; FeSSIF (fed state simulated intestinal fluid), FeSSIF, 4 h): 280 µg/mL
- solubility at 24 h [2, 7]: 320 µg/mL
- solubility at 24 h ([2]; SGF (simulated gastric fluid), simulated gastric fluid, SGF): 240 µg/mL
- Solubility ([2]; SGF, 4 h): 210 µg/mL
- Solubility (in words) ([2]; in SGF, FeSSIF, FaSSIF and H2O): high
- solubility at 4 h ([2]; water, H2O, 4 h): 2200 µg/mL
- solubility at 24 h ([2]; water, H2O): 2400 µg/mL
- Crystalline form change after grinding (XRPD) [3]: doesn't change
- Weight gain under 80% RH [4]: 2.34%
- Weight gain under 80% RH ([4]; listed as Form CS2 of ozanimod hydrochloride): 2.34%
- Hygroscopicity (in words) ([4]; 80% RH): low
- D10 [5]: 7.6 μm
- D50 [5]: 44.90 μm
- D90 [5]: 149.4 μm
- Particle size distribution (in words) [5]: uniform
- MV (average particle diameter calculated by volume) ([5]; hydrochloride): about 64.22 μm
- MV (average particle diameter calculated by volume) ([5]; listed as CS2, hydrochloride): 64.22 μm
